For the assay, the target named is T1, rat mGluR5 (Rattus norvegicus, UniProt P31424).
T1 construct: expressed in transfected cells
In words: mGluR5 calcium mobilization assay (FDSS, Fluo-4) in HEK 293A cells stably expressing rat mGluR5. The format is cell-based. As to conditions: HEK cells transfected with rat mGluR5; antagonism of glutamate EC80 response; ± = standard error of at least three experiments. How it is done:
Human embryonic kidney (HEK) cells transfected with rat or human mGluR5 were plated in clear bottom assay plates for assay in a Functional Drug Screening System (FDSS). The cells were loaded with a Ca^2+-sensitive fluorescent dye (e.g., Fluo-4), and the plates were washed and placed in the FDSS instrument. Test compound was applied to cells 3 seconds after baseline readings were taken. Cells were incubated with the test compounds for 140 seconds and then stimulated with an EC20 concentration of an mGluR5 agonist (e.g., glutamate, 3,5-dihydroxyphenylglycine, or quisqualate); 60-80 seconds later an EC80 concentration of agonist was added and readings taken for an additional 40 seconds. Data were collected at 1 Hz. […] Concentration response curves were generated using a four parameter logistical equation.
The above described assay was operated in two modes. In the first mode (utilizing a triple add protocol), a range of concentrations of the present compounds were added to cells, followed by two single fixed concentrations of agonist (EC20 followed by EC80). If a compound acted as a potentiator, an EC50 value for potentiation of the EC20 response and a maximum extent of potentiation by the compound at this concentration of agonist was determined by non-linear curve fitting. If a compound acted as an antagonist, an IC50 value for antagonism of the EC80 response and a maximum extent of antagonism by the compound at this concentration of agonist was determined by non-linear curve fitting. In the second mode (utilizing a double add protocol), several fixed concentrations of the present compounds were added to various wells on a plate, followed by a range of concentrations of agonist for each concentration of present compound; the EC50 values for the agonist at each concentration of compound were determined by nonlinear curve fitting. A decrease in the EC50 value of the agonist with increasing concentrations of the present compounds (a leftward shift of the agonist concentration-response curve) is an indication of the degree of mGluR5 positive allosteric modulation at a given concentration of the present compound. An increase in the EC50 value of the agonist with increasing concentrations of the present compounds (a rightward shift of the agonist concentration response curve) is an indication of the degree of mGluR5 antagonism at a given concentration of the present compound. The second mode also indicates whether the present compounds also affect the maximum response to mGluR5 to agonists.
The mGluR5 activity was determined using the calcium mobilization assays in human embryonic kidney cells as described herein below, wherein the human embryonic kidney cells were transfected with rat mGluR5. The mGluR5 activity data for some compounds are shown as the average of at least three experiments with the standard error in these cases. If no error is indicated for the mGluR5 activity, the values given represent the results from a single experiment or the average of two experiments. The compounds in Table 1 were synthesized with methods identical or analogous to those shown herein. The requisite starting materials were commercially available, described in the literature, or readily synthesized by one skilled in the art of organic synthesis.
GluMax is the amplitude of response in the presence of 30 μM test compound as a percentage of maximal response (100 μM glutamate). Partial antagonists display concentration-response curves (CRCs) that plateau above 10%.
The preparation of rat mGluR5 stable cell-lines is as previously described (e.g. see Romano et al. J Biol. Chem. 1996 Nov. 8; 271(45):28612-6).

Some results are limits rather than exact numbers.

T1 sequence (P31424 21-1171 isoform P31424-2 limits assumed): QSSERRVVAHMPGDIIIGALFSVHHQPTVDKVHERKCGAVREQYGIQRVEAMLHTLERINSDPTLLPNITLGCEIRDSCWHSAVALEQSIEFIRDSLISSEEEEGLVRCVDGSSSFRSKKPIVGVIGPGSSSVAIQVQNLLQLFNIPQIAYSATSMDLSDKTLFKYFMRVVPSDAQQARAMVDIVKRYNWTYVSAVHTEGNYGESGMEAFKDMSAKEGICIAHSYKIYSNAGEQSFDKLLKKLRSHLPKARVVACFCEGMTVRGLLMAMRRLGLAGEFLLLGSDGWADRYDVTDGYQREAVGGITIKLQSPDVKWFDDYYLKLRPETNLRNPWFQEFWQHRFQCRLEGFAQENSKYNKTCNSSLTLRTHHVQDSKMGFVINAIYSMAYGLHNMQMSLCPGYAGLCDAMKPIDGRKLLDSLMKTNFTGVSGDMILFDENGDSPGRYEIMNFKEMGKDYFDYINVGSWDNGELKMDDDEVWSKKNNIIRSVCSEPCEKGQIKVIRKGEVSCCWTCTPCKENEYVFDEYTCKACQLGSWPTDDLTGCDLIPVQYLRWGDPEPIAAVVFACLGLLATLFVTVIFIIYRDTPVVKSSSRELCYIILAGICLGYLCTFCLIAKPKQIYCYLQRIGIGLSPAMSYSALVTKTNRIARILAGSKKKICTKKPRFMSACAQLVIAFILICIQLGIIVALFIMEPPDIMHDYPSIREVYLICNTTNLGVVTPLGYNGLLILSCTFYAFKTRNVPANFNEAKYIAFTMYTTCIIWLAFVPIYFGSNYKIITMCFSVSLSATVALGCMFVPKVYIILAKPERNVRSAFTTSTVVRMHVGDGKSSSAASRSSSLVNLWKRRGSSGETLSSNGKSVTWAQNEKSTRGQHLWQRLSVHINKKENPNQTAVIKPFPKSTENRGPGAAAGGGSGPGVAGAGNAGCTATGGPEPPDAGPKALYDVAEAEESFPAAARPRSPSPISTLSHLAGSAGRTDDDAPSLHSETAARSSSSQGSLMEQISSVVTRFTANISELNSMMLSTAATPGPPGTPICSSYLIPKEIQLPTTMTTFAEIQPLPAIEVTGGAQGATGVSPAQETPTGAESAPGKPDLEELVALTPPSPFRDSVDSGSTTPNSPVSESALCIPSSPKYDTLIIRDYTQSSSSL

Take `O=C(Nc1ccccn1)c1cc(Oc2cccnc2)cn2ncnc12`: the IC50 stood at 28 nM.

For the compound `O=C(Nc1ccccn1)c1cc(Oc2cc(F)cnc2F)cn2ncnc12`, the IC50 is 86 nM.

Consider `O=C(Nc1ccc(F)cn1)c1cc(Oc2cncc(F)c2F)cn2ncnc12`, for which the IC50 came out at 41 ± 2 nM.

On to `COc1cncc(Oc2cc(C(=O)Nc3cccc(C)n3)c3ncnn3c2)c1`, for which the 50% inhibitory concentration (IC50) turned out to be 175 nM.

Take `CCc1cccc(NC(=O)c2cc(Oc3cncc(F)c3)cn3ncnc23)n1`: the IC50 was found to be 101 nM.

`Cc1cccc(NC(=O)c2cc(Oc3cnc(F)c(F)c3)cn3ncnc23)n1`: the IC50 was found to be 128 nM.

For the compound `O=C(Nc1nc(C(F)F)cs1)c1cc(Oc2cncnc2)cn2ncnc12`, the IC50 stood at 214 nM.

As to `COc1ccc(NC(=O)c2cc(Oc3cncc(F)c3)cn3ccnc23)nc1`, the IC50 is 39 nM.

Take `Cc1cncc(Oc2cc(C(=O)Nc3cccc(F)n3)c3ncnn3c2)c1`: the half-inhibitory concentration (IC50) is 89 nM.

On to `COc1ccc(NC(=O)c2cc(Oc3cncc(C)c3)cn3ncnc23)nc1`, for which the IC50 is 275 nM.

Take `CCc1cccc(NC(=O)c2cc(Oc3cncnc3)cn3cnnc23)n1`: the IC50 is 2060 nM.

Take `[2H]c1nc(NC(=O)c2cc(Oc3cncc(OC)c3)cn3cnnc23)c([2H])c([2H])c1[2H]`: the 50% inhibitory concentration (IC50) came to 1230 nM.

`O=C(Nc1ccc(F)cn1)c1cc(Oc2cccnc2)cn2ncnc12`: the half-inhibitory concentration (IC50) is 25 nM.

Regarding `N#Cc1cncc(Oc2cc(C(=O)Nc3ccc(F)cn3)c3nncn3c2)c1`, the half-maximal inhibitory concentration (IC50) is 1430 nM.

Take `COc1ccc(NC(=O)c2cc(Oc3cnc(C)nc3)cn3cnnc23)nc1`: the IC50 is greater than 10000 nM.

Take `O=C(Nc1nc(CF)cs1)c1cc(Oc2cncnc2)cn2ncnc12`: the IC50 was 244 nM.

Take `O=C(Nc1ccc(F)cn1)c1cc(Oc2cncc(Cl)c2)cn2ccnc12`: the IC50 is 76 nM.

As for `Cc1nc(NC(=O)c2cc(Oc3cccnc3)cn3ncnc23)ccc1F`, the IC50 is 119 nM.

`COc1cncc(Oc2cc(C(=O)Nc3cccc(OC)n3)c3ncnn3c2)c1` [drawing 305]: the IC50 turned out to be 334 nM.

On to `[2H]c1nc(NC(=O)c2cc(Oc3cncc(OC)c3)cn3ccnc23)c([2H])c([2H])c1[2H]`, for which the IC50 was determined as 46 nM.

On to `O=C(Nc1ccccn1)c1cc(Oc2cncc(O)c2)cn2ncnc12`, for which the IC50 was determined as 44 nM.

`Cc1ncc(Oc2cc(C(=O)Nc3ccc(F)cn3)c3nncn3c2)cn1`: the IC50 was greater than 10000 nM.

With `Cc1nnc2c(C(=O)Nc3ccc(F)cn3)cc(Oc3cncc(F)c3)cn12`, the IC50 came out at 360 nM.

Take `COc1cccc(NC(=O)c2cc(Oc3cnc(C)nc3)cn3ccnc23)n1`: the IC50 was determined as 2840 nM.

Regarding `O=C(Nc1ccc(F)cn1)c1cc(Oc2cnc(F)c(F)c2)cn2ncnc12`, the IC50 worked out at 59 ± 11 nM.

On to `Cc1cncc(Oc2cc(C(=O)Nc3ccccn3)c3ncnn3c2)c1`, for which the IC50 was determined as 57 nM.

Consider `Cc1ncc(Oc2cc(C(=O)Nc3cccc(F)n3)c3nccn3c2)cn1`, for which the 50% inhibitory concentration (IC50) is 5780 nM.

Regarding `O=C(Nc1cc(F)ccn1)c1cc(Oc2cncc(F)c2)cn2ncnc12`, the 50% inhibitory concentration (IC50) was 723 nM.

For `Cc1cccc(NC(=O)c2cc(Oc3cccnc3)cn3ncnc23)n1`, the IC50 was 41 nM.

On to `Cc1ccc(NC(=O)c2cc(Oc3cncc(Cl)c3)cn3ncnc23)nc1`, for which the IC50 came out at 135 nM.

Consider `Cc1csc(NC(=O)c2cc(Oc3cccnc3)cn3ncnc23)n1`, for which the IC50 amounted to 43 nM.

For `Cc1csc(NC(=O)c2cc(Oc3cncc(Cl)c3)cn3ncnc23)n1`, the IC50 was 62 nM.

As to `COc1cncc(Oc2cc(C(=O)Nc3cccc(F)n3)c3ncnn3c2)c1`, the IC50 stood at 258 nM.

For the compound `O=C(Nc1ccccn1)c1cc(Oc2cncc(Cl)c2)cn2ccnc12`, the IC50 amounted to 33 nM.

With `O=C(Nc1ccccn1)c1cc(Oc2cncc(F)c2)cn2cnnc12`, the IC50 amounted to 33 nM.

As for `CCc1cccc(NC(=O)c2cc(Oc3cncc(OC)c3)cn3cnnc23)n1` [drawing 287], the IC50 was greater than 10000 nM.

Consider `Cc1ccc(NC(=O)c2cc(Oc3cncc(Cl)c3)cn3cnnc23)nc1`, for which the IC50 is 1050 nM.

Take `COc1cncc(Oc2cc(C(=O)Nc3ccc(C)cn3)c3ncnn3c2)c1`: the IC50 was 218 nM.

As for `O=C(Nc1cccc(F)n1)c1cc(Oc2cncc(F)c2)cn2cnnc12`, the IC50 came to 50 nM.

Consider `COc1cncc(Oc2cc(C(=O)Nc3cccc(OC)n3)c3nncn3c2)c1`, for which the IC50 was greater than 10000 nM.

`Cc1nnc2c(C(=O)Nc3ccccn3)cc(Oc3cncc(F)c3)cn12`: the IC50 is 172 nM.

Turning to `[2H]c1nc(NC(=O)c2cc(Oc3cncc(C)c3)cn3ncnc23)c([2H])c([2H])c1[2H]`, the IC50 was determined as 55 nM.

Take `Cc1csc(NC(=O)c2cc(Oc3cncc(Cl)c3)cn3ccnc23)n1`: the IC50 worked out at 182 nM.

As for `[2H]c1nc(NC(=O)c2cc(Oc3cncc(Cl)c3)cn3cnnc23)c([2H])c([2H])c1[2H]`, the IC50 was 217 nM.

`CCc1cccc(NC(=O)c2cc(Oc3cncc(OC)c3)cn3ccnc23)n1`: the IC50 is 377 nM.

Take `COc1ccc(NC(=O)c2cc(Oc3cncc(Cl)c3)cn3ncnc23)nc1`: the IC50 was found to be 92 nM.

Consider `Cc1cccc(NC(=O)c2cc(Oc3cncc(F)c3)cn3ncnc23)n1`, for which the half-maximal inhibitory concentration (IC50) was 58 nM.

As to `COc1cccc(NC(=O)c2cc(Oc3cncc(Cl)c3)cn3ncnc23)n1`, the IC50 amounted to 236 nM.

`COc1cncc(Oc2cc(C(=O)Nc3ccc(F)cn3)c3nccn3c2)c1`: the IC50 worked out at 40 nM.

For the compound `CCc1cccc(NC(=O)c2cc(Oc3cnc(F)c(F)c3)cn3ncnc23)n1`, the IC50 amounted to 559 nM.

For `O=C(Nc1cccc(F)n1)c1cc(Oc2cncc(Cl)c2)cn2ncnc12`, the IC50 worked out at 62 nM.

Turning to `N#Cc1cncc(Oc2cc(C(=O)Nc3ccccn3)c3ncnn3c2)c1`, the IC50 stood at 105 nM.

In the case of `Cc1ccc(NC(=O)c2cc(Oc3cncc(F)c3)cn3ccnc23)nc1`, the IC50 was 48 nM.

`COc1cncc(Oc2cc(C(=O)Nc3ccc(C)cn3)c3nncn3c2)c1`: the IC50 turned out to be 3600 nM.

`CCc1cccc(NC(=O)c2cc(Oc3cncc(F)c3)cn3cnnc23)n1`: the IC50 was 168 nM.

As to `COc1cncc(Oc2cc(C(=O)Nc3nc(C)cs3)c3nccn3c2)c1`, the IC50 is 66 nM.

Turning to `Cc1nnc2c(C(=O)Nc3cccc(F)n3)cc(Oc3cncc(F)c3)cn12`, the IC50 is 1070 nM.

For the compound `COc1cccc(NC(=O)c2cc(Oc3cncc(C)c3)cn3ncnc23)n1`, the IC50 is 260 nM.

Take `Cc1nc(NC(=O)c2cc(Oc3cncc(F)c3)cn3ccnc23)ccc1F`: the IC50 was found to be 189 nM.

Take `Cc1cccc(NC(=O)c2cc(Oc3cncc(F)c3)cn3cnnc23)n1`: the IC50 stood at 73 nM.

`CCc1cccc(NC(=O)c2cc(Oc3cncc(F)c3)cn3c(C)nnc23)n1`: the IC50 turned out to be 1180 nM.

In the case of `O=C(Nc1ccccn1)c1cc(Oc2cncc(F)c2)cn2ccnc12`, the IC50 amounted to 16 nM.

`[2H]c1nc(NC(=O)c2cc(Oc3cncc(F)c3)cn3ncnc23)c([2H])c([2H])c1[2H]`: the IC50 was determined as 43 nM.

`Cc1ccc(NC(=O)c2cc(Oc3cncc(F)c3)cn3ncnc23)nc1`: the IC50 stood at 53 nM.

As for `COc1cccc(NC(=O)c2cc(Oc3cncc(F)c3)cn3ncnc23)n1`, the IC50 is 70 nM.

`CCc1cccc(NC(=O)c2cc(Oc3cncc(F)c3)cn3nc(C)nc23)n1`: the IC50 is 623 nM.

Turning to `O=C(Nc1cccc(F)n1)c1cc(Oc2cncc(F)c2)cn2ncnc12`, the IC50 stood at 31 nM.

`COc1cncc(Oc2cc(C(=O)Nc3ccccn3)c3ncnn3c2)c1`: the half-maximal inhibitory concentration (IC50) came to 99 nM.

`CCc1cccc(NC(=O)c2cc(Oc3cncc(Cl)c3)cn3cnnc23)n1`: the IC50 was found to be 1340 nM.

`Cc1nc(NC(=O)c2cc(Oc3cncnc3)cn3ncnc23)ccc1F`: the 50% inhibitory concentration (IC50) came to 296 nM.

On to `Cc1nc(NC(=O)c2cc(Oc3cncnc3)cn3ncnc23)sc1F`, for which the IC50 is 150 nM.

Turning to `Cc1csc(NC(=O)c2cc(Oc3cncc(C#N)c3)cn3ccnc23)n1`, the IC50 is 127 nM.

In the case of `[2H]c1nc(NC(=O)c2cc(Oc3cccnc3)cn3ncnc23)c([2H])c([2H])c1[2H]`, the IC50 was 26 nM.

Turning to `O=C(Nc1ccc(F)cn1)c1cc(Oc2cncc(F)c2)cn2cnnc12` [drawing 160], the IC50 came to 28 ± 7 nM.

Source of the values: patent US9844542B2, “Substituted imidazopyridine and triazolopyridine compounds as negative allosteric modulators of mGluR5” (Vanderbilt University, priority 2013, dated 2017).
